The test system of one experiment is BT-474. The experiment can be described thus: In vitro cell proliferation inhibition, WST assay. The format is cell-based, human. The conditions noted are these: BT-474 cells, cultured for 3 days, read-out: BT-474 (nM) proliferation inhibitory activity (IC50 value). The method, then:
Test of In Vitro Cell Proliferation Inhibition of Test Compound
As a human-derived cancer cell strain, BT-474 was used. Cells were all cultured in a 37° C., 5% CO2 incubator in a medium in which 10% bovine fetal serum (ICN) and 50 units ml penicillin/60 μg/ml streptomycin solution (GIBCO) were added to Dulbecco's Modified Essential Medium (DMEM, Nacalai Tesque, Inc).

In the next experiment the target is T1, HER2 (Homo sapiens, UniProt P04626).
T1 construct: purchased Carna Biosciences, Inc; host or cells: insect cell expression system
T1 sequence (P04626 23-1255): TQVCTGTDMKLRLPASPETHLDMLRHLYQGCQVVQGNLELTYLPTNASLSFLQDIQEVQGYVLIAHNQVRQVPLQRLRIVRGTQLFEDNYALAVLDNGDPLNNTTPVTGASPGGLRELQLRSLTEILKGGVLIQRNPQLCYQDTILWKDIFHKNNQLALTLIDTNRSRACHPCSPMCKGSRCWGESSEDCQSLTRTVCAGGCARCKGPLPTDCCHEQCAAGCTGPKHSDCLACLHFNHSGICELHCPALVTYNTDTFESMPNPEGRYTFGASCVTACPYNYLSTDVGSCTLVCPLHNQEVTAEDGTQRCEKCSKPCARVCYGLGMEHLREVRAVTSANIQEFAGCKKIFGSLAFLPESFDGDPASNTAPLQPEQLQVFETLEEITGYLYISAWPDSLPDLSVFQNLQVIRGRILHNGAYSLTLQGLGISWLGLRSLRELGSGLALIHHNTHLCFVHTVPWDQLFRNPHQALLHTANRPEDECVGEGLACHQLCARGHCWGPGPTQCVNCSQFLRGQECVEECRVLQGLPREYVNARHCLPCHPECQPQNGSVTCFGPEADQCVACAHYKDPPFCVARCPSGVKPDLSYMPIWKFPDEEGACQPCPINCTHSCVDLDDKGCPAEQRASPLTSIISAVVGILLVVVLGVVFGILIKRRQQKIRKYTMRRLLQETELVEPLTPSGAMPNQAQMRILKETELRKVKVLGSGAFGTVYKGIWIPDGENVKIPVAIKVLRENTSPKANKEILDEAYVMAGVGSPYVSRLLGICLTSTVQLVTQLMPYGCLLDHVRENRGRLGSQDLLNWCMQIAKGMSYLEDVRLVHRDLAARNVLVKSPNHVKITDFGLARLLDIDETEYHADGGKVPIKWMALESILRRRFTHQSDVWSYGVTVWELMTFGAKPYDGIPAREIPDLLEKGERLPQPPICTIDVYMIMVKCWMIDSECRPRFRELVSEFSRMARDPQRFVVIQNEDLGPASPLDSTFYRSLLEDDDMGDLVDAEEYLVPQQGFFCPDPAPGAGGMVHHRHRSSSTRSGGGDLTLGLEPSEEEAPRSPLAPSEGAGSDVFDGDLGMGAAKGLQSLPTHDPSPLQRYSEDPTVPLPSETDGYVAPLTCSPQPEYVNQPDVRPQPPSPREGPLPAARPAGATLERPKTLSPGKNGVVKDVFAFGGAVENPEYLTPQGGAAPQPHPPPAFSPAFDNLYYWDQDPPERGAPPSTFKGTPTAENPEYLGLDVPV
The experiment can be described thus: Enzyme inhibitory activity on HER2 (time resolution fluorescence, biotinylated poly-Glu-Tyr substrate). It counts as biochemical. The method, then: (§1) Enzyme Inhibitory Activity of Test Compound on EGFR and HER2
(§2) EGFR and HER2 purified from an insect cell expression system, and a biotinylated substrate (synthetic peptide of glutamic acid:tyrosine=4:1) were added to a 384-well plate with ATP added thereto, and an enzyme reaction was performed at room temperature. After completion of the enzyme reaction, an anti-phosphorylated tyrosine antibody labeled with europium and streptavidin labeled with alphycocyanine were added, and a phosphorylated tyrosine residue was quantified by a time resolution fluorescence method.
(§3) A test compound was adjusted to 10 mM using DMSO.
(§4) Further, using 10% DMSO solution, a 1 mM solution was prepared, and this was regarded as a maximum concentration point.
(§5) As a dilution series, a 4-fold dilution series was prepared to a 10 stage.
(§6) As a buffer, TBS containing 10 mM MgCl2, 5 mM MnCl2, 0.2 mM Na3VO4, and 0.1% BSA was used.
(§7) As EGFR and HER2 enzymes, those purified from an insect cell expression system were purchased from Carna Biosciences, Inc.
HER2 kinase was adjusted to 1000 ng/ml using a buffer.
(§8) As a substrate, biotinylated poly-Glu-Tyr (4:1, manufactured by CISbio) was used. A concentration was adjusted to 3.125 μg/ml using the above buffer.
An ATP concentration on study of the HER2 enzyme was adjusted to 290 μM.
(§9) For preparing a detection reagent, TBS containing 30 mM EDTA, 0.8M KF and 0.1% BSA was used.
(§10) An anti-phosphorylated tyrosine antibody labeled with europium, PT-66K (CISbio) was adjusted to 195 ng/ml, and streptavidin labeled with alphycocyanine, SA-XL (CISbio) was adjusted to 5 μg/ml.
(§11) As an assay plate, a 384-well plate was used. Per one well, 1.1 μl of a test compound, 4 μl of a substrate solution, and 4 μl of an enzyme solution were added, and 2 μl of an ATP solution was added to initiate an enzyme reaction. The enzyme reaction was performed at room temperature for 60 minutes, and 10 μl of a detection reagent was added to complete the reaction. One hour after completion of the reaction, time resolution fluorescent measurement was performed.

The target in the next experiment is T2, EGFR (Homo sapiens, UniProt P00533).
T2 construct: purchased Carna Biosciences, Inc; host or cells: insect cell expression system
T2 sequence (P00533 25-1210): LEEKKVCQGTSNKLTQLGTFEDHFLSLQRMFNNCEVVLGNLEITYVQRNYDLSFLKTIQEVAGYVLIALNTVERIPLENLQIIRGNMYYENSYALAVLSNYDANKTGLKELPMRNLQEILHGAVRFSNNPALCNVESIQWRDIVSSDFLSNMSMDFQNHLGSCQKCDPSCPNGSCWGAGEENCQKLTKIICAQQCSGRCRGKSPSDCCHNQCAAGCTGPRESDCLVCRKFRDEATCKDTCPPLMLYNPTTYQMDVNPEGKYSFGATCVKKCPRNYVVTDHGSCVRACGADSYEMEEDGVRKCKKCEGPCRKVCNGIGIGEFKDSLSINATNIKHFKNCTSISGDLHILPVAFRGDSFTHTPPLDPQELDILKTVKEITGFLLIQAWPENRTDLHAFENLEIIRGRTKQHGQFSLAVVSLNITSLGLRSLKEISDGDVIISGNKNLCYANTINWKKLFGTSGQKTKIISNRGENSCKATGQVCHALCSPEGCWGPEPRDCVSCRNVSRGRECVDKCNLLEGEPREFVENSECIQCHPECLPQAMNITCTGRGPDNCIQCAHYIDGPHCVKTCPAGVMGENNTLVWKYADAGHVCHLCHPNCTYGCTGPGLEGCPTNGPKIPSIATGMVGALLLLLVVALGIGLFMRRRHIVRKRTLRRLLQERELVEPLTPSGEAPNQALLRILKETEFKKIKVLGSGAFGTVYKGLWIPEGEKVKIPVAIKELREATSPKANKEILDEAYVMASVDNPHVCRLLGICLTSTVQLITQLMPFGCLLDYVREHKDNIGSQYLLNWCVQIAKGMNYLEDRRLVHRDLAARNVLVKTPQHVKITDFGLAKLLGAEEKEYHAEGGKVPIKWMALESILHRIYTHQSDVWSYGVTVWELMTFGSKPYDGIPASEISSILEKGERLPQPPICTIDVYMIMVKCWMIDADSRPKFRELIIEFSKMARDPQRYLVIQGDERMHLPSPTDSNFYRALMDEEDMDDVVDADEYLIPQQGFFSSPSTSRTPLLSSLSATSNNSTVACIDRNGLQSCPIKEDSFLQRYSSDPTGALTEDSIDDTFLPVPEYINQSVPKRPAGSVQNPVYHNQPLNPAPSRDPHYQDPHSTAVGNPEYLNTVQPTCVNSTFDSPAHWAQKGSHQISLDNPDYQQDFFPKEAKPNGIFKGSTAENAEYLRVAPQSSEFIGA
The experiment is described as follows: Enzyme inhibitory activity on EGFR (time resolution fluorescence, biotinylated poly-Glu-Tyr substrate). The format is biochemical. The method, then: as §1, §2, §3, §4, §5, §6, §7
An EGFR enzyme solution was adjusted to 250 ng/ml using a buffer.
as §8
An ATP concentration on study of the EGFR enzyme was adjusted to 125 μM using the buffer.
as §9, §10, §11

Setting [1] is: enzyme reaction at room temperature for 60 minutes.
[2] abbreviates: HER2 purified from insect cell expression system, ATP solution 290 μM, room temperature, 60 minutes.
The mark [3] stands for this setting: EGFR purified from insect cell expression system, ATP solution 125 μM, room temperature, 60 minutes.

Like-named read-outs stand apart in the source and are kept apart here.

As for `CC#C/C(=N\OCCNC[C@@H](C)CO)c1ccc2ncnc(Nc3ccc(OCc4ccccn4)c(Cl)c3)c2c1` [VIII-139], the IC50 in the experiment on BT-474 (Homo sapiens, BT-474, 72 h) was 32 nM; on HER2 (setting [1]) it was 3.8 nM; at EGFR (setting [1]), 5 nM.
On to `CC#C/C(=N\OC[C@@H](N)CO)c1ccc2ncnc(Nc3ccc(OCc4cccc(F)c4)c(Cl)c3)c2c1` [VIII-41], for which the IC50 in the experiment with BT-474 worked out at 14 nM; on HER2 (setting [2]), 15 nM; at EGFR (setting [3]), 12 nM.
As to `CC#C/C(=N\OC[C@@H]1C[C@H](O)CN1)c1ccc2ncnc(Nc3ccc(OCc4ccccn4)c(Cl)c3)c2c1` [VIII-152], the IC50 is 22 nM in the experiment on BT-474 (Homo sapiens, BT-474, 72 h); 4.3 nM against HER2 (setting [1]); 2.4 nM on EGFR (setting [1]).
Regarding `CC#C/C(=N\OCCNCCOC(N)=O)c1ccc2ncnc(Nc3ccc(OCc4cccc(F)c4)c(Cl)c3)c2c1` [VIII-53], the IC50 with BT-474 (Homo sapiens, BT-474, 72 h) came out at 12 nM; against HER2 (setting [2]), 80 nM; on EGFR (setting [3]), 79 nM.
Turning to `CC#C/C(=N\OCC(=O)NCCOS(C)(=O)=O)c1ccc2ncnc(Nc3ccc(OCc4cccc(F)c4)c(Cl)c3)c2c1` [VIII-225], the IC50 in the experiment on BT-474 (Homo sapiens, BT-474, 72 h) is 7 nM; against HER2 (setting [1]), 70 nM; on EGFR (setting [1]) it was 47 nM.
As to `CC#C/C(=N\OC[C@@H]1C[C@H](O)CN1)c1ccc2ncnc(Nc3ccc(OCc4cccc(F)c4)c(Cl)c3)c2c1` [VIII-82], the values for the IC50 in the experiment on BT-474, at HER2 (setting [2]) and against EGFR (setting [3]) were 16 nM, 7.5 nM and 7.6 nM, respectively.
For `CC#C/C(=N\OC[C@H]1CNC[C@H](C)O1)c1ccc2ncnc(Nc3ccc(OCc4cccc(F)c4)c(Cl)c3)c2c1` [VIII-117] the same measures were 20 nM, 53 nM and 47 nM.
As for `OCC#C/C(=N\OCCN1CCCC1)c1ccc2ncnc(Nc3ccc(OCc4cccc(F)c4)c(Cl)c3)c2c1` [VIII-122], the IC50 in the experiment with BT-474 (Homo sapiens, BT-474, 72 h) came to 14 nM; against HER2 (setting [2]), 24 nM; against EGFR (setting [3]), 29 nM.
Regarding `CC#C/C(=N\OC[C@@H]1C[C@H](O)CN1)c1ccc2ncnc(Nc3ccc4c(cnn4Cc4cccc(F)c4)c3)c2c1` [VIII-194], the IC50 with BT-474 stood at 25 nM; against HER2 (setting [1]), 13 nM; on EGFR (setting [1]), 8.6 nM.
For `CC#C/C(=N\OC[C@@H](COC)NC)c1ccc2ncnc(Nc3ccc(S(=O)(=O)c4ccccc4)cc3)c2c1` [VIII-205], the IC50 in the experiment on BT-474 (Homo sapiens, BT-474, 72 h) amounted to 31 nM; at HER2 (setting [1]) it was 13 nM; at EGFR (setting [1]), 17 nM.
In the same order, the values of `CC#C/C(=N\OCCN1CCS(=O)(=O)CC1)c1ccc2ncnc(Nc3ccc(OCc4ccccn4)c(Cl)c3)c2c1` [VIII-162] are 42 nM, 62 nM and 51 nM.
Regarding `CC#C/C(=N\OCCN1CCC(NS(C)(=O)=O)CC1)c1ccc2ncnc(Nc3ccc(OCc4cccc(F)c4)c(Cl)c3)c2c1` [VIII-100], the IC50 in the experiment with BT-474 (Homo sapiens, BT-474, 72 h) worked out at 16 nM; against HER2 (setting [2]), 203 nM; at EGFR (setting [3]) it was 208 nM.
Take `CC#CC(=NOCC1NC(=O)OC1C)c1ccc2ncnc(Nc3ccc(OCc4cccc(F)c4)c(Cl)c3)c2c1` (stereo not drawn) [VIII-77]: the IC50 with BT-474 amounted to 11 nM; against HER2 (setting [2]) it was 246 nM; against EGFR (setting [3]), 217 nM.
In the same order, the values of `CC#C/C(=N\OCCN1CCC(N)CC1)c1ccc2ncnc(Nc3ccc(OCc4cccc(F)c4)c(Cl)c3)c2c1` [VIII-98] are 65 nM, 21 nM and 21 nM.
Turning to `CC#C/C(=N\OCC1COCCN1)c1ccc2ncnc(Nc3ccc(COc4cccc(F)c4)c(Cl)c3)c2c1` (stereo not drawn) [VIII-221], the IC50 is 15 nM in the experiment with BT-474, 168 nM at HER2 (setting [1]) and 143 nM at EGFR (setting [1]).
In the case of `CC#C/C(=N\OC[C@@H]1CNCC(=O)N1)c1ccc2ncnc(Nc3ccc(OCc4ccccn4)c(Cl)c3)c2c1` [VIII-179], the IC50 with BT-474 (Homo sapiens, BT-474, 72 h) amounted to 48 nM; against HER2 (setting [1]) it was 5 nM; on EGFR (setting [1]), 4.6 nM.
For `CC#C/C(=N\OCCN1CCC[C@@H]1CO)c1ccc2ncnc(Nc3ccc(OCc4ccccn4)c(Cl)c3)c2c1` [VIII-150] the same measures were 30 nM, 11 nM and 12 nM.

Values taken from patent publication US8202879B2, “Quinazoline derivatives having tyrosine kinase inhibitory activity” (Shionogi & Co., Ltd., priority 2005, dated 2012).
